US12208092B2, “Compositions and methods for administering paltusotine to patients with hepatic impairment” (CRINETICS PHARMACEUTICALS, INC., priority 2023, dated 2025)

Experiment: Phase 1 hepatic impairment study, safety (TEAEs) after single oral 20 mg tablet
[1] = mild hepatic impairment (N = 8)
[2] = moderate hepatic impairment (N = 8)
[3] = normal hepatic function (N = 14)

Method: The secondary objective of the study was to assess the safety and tolerability of a single dose of paltusotine in subjects with varying degrees of hepatic impairment.
Safety and tolerability were assessed by the following endpoints: reported adverse events (AEs), clinical laboratory test results (hematology, coagulation, serum chemistry, and urinalysis), vital sign measurements, and 12-lead electrocardiogram results
All 36 subjects who were enrolled in the study received all planned single doses of paltusotine 20 mg (1×20 mg tablet) and were included in the safety and PK analysis populations.

With `N#Cc1cccc(-c2ccc3ncc(-c4cc(F)cc(F)c4)c(N4CCC(N)CC4)c3c2)c1O` [paltusotine, 3-[4-(4-amino-1-piperidyl)-3-(3,5-difluorophenyl)-6-quinolyl]-2-hydroxybenzonitrile] the “discontinuation due to a TEAE” value (all 36 subjects) was “No subjects discontinued”, the safety and tolerability (hepatic impairment and normal subjects) was “safe and generally well tolerated” and the “Any SAEs, number of occurrences” value [1] was 1. The “Any TEAE, number of occurrences” value [1] was 3, the “Related TEAE Abdominal discomfort, subjects n (%)” value [1] was 0 and the “Related TEAE Diarrhea, number of occurrences” value (shortened to “Related TEAE Diarrhea, number”) [1] was 1. The “Related TEAE Diarrhea, subjects n (%)” value [1] was 1 (12.5%), the “Related TEAE Epigastric discomfort, subjects n (%)” value [1] was 0 and the “Related TEAE Fatigue, subjects n (%)” value [1] was 0. The “Related TEAE Haematuria, number of occurrences” value [1] was 1, the “Related TEAE Haematuria, subjects n (%)” value [1] was 1 (12.5%) and the “Related TEAE Headache, subjects n (%)” value [1] was 0. The “Related TEAE Neutropenia, subjects n (%)” value [1] was 0, the “Related TEAE Pain, subjects n (%)” value [1] was 0 and the “Related TEAE Paraesthesia, subjects n (%)” value [1] was 0. For the same compound, the “SAEs Not related to study drug (strongest relationship), subjects n (%)” value (“SAEs Not related to study drug … (%)” for short) [1] was 1 (12.5%), the “SAEs Not related to study drug, number of occurrences” value [1] was 1 and the “SAEs Related to study drug (strongest relationship), subjects” value (shortened to “SAEs Related to study drug”) [1] was 0. The “Subjects reporting any SAEs, subjects n (%)” value [1] was 1 (12.5%), the “Subjects reporting any TEAE, subjects n (%)” value [1] was 2 (25.0%) and the “TEAE Abdominal discomfort, subjects n (%)” value [1] was 0. The “TEAE COVID-19, subjects n (%)” value [1] was 0, the “TEAE Death, number of occurrences” value [1] was 1 and the “TEAE Diarrhea, number of occurrences” value [1] was 1. The “TEAE Diarrhea, subjects n (%)” value [1] was 1 (12.5%), the “TEAE Epigastric discomfort, subjects n (%)” value [1] was 0 and the “TEAE Fatigue, subjects n (%)” value [1] was 0. For the same compound, the “TEAE Haematuria, number of occurrences” value [1] was 1, the “TEAE Haematuria, subjects n (%)” value [1] was 1 (12.5%) and the “TEAE Headache, subjects n (%)” value [1] was 0. The “TEAE Neutropenia, subjects n (%)” value [1] was 0, the “TEAE Pain, subjects n (%)” value [1] was 0 and the “TEAE Paraesthesia, subjects n (%)” value [1] was 0. For the same compound, the “TEAE SOC Blood and lymphatic system disorders, subjects n (%)” value [1] was 0, the “TEAE SOC Gastrointestinal disorders, number of occurrences” value [1] was 1 and the “TEAE SOC Gastrointestinal disorders, subjects n (%)” value [1] was 1 (12.5%). The “TEAE SOC General disorders and administration site conditions, number of occurrences” value [1] was 1, the “TEAE SOC General disorders and administration site conditions, subjects n (%)” value [1] was 1 (12.5%) and the “TEAE SOC Infections and infestations, subjects n (%)” value [1] was 0. The “TEAE SOC Nervous system disorders, subjects n (%)” value [1] was 0, the “TEAE SOC Renal and urinary disorders, number of occurrences” value [1] was 1 and the “TEAE SOC Renal and urinary disorders, subjects n (%)” value [1] was 1 (12.5%). For the same compound, the “TEAEs Not Related to study drug (strongest relationship), subjects n (%)” value [1] was 0, the “TEAEs Related to study drug (strongest relationship), subjects n (%)” value [1] was 2 (25.0%) and the “TEAEs Related to study drug, number of occurrences” value [1] was 2. The “TEAEs by maximum severity: Mild, number of occurrences” value [1] was 2, the “TEAEs by maximum severity: Mild, subjects n (%)” value [1] was 1 (12.5%) and the “TEAEs by maximum severity: Moderate, subjects n (%)” value [1] was 0. The “TEAEs by maximum severity: Severe, number of occurrences” value [1] was 1, the “TEAEs by maximum severity: Severe, subjects n (%)” value [1] was 1 (12.5%) and the “Total number of SAEs reported” value [1] was 1. The “Total number of TEAEs reported” value [1] was 3, the “Any TEAE, number of occurrences” value [2] was 4 and the “Related TEAE Abdominal discomfort, subjects n (%)” value [2] was 0. The “Related TEAE Diarrhea, number” value [2] was 1, the “Related TEAE Diarrhea, subjects n (%)” value [2] was 1 (12.5%) and the “Related TEAE Epigastric discomfort, subjects n (%)” value [2] was 0. For the same compound, the “Related TEAE Fatigue, number of occurrences” value [2] was 1, the “Related TEAE Fatigue, subjects n (%)” value [2] was 1 (12.5%) and the “Related TEAE Haematuria, subjects n (%)” value [2] was 0. For the same compound, the “Related TEAE Headache, number of occurrences” value [2] was 1, the “Related TEAE Headache, subjects n (%)” value [2] was 1 (12.5%) and the “Related TEAE Neutropenia, subjects n (%)” value [2] was 0. The “Related TEAE Pain, number of occurrences” value [2] was 1, the “Related TEAE Pain, subjects n (%)” value [2] was 1 (12.5%) and the “Related TEAE Paraesthesia, subjects n (%)” value [2] was 0. For the same compound, the “SAEs Not related to study drug … (%)” value [2] was 0, the “SAEs Related to study drug” value [2] was 0 and the “Subjects reporting any SAEs, subjects n (%)” value [2] was 0. The “Subjects reporting any TEAE, subjects n (%)” value [2] was 2 (25.0%), the “TEAE Abdominal discomfort, subjects n (%)” value [2] was 0 and the “TEAE COVID-19, subjects n (%)” value [2] was 0. The “TEAE Death, subjects n (%)” value [2] was 0, the “TEAE Diarrhea, number of occurrences” value [2] was 1 and the “TEAE Diarrhea, subjects n (%)” value [2] was 1 (12.5%). The “TEAE Epigastric discomfort, subjects n (%)” value [2] was 0, the “TEAE Fatigue, number of occurrences” value [2] was 1 and the “TEAE Fatigue, subjects n (%)” value [2] was 1 (12.5%). The “TEAE Haematuria, subjects n (%)” value [2] was 0, the “TEAE Headache, number of occurrences” value [2] was 1 and the “TEAE Headache, subjects n (%)” value [2] was 1 (12.5%). For the same compound, the “TEAE Neutropenia, subjects n (%)” value [2] was 0, the “TEAE Pain, number of occurrences” value [2] was 1 and the “TEAE Pain, subjects n (%)” value [2] was 1 (12.5%). The “TEAE Paraesthesia, subjects n (%)” value [2] was 0, the “TEAE SOC Blood and lymphatic system disorders, subjects n (%)” value [2] was 0 and the “TEAE SOC Gastrointestinal disorders, number of occurrences” value [2] was 1. The “TEAE SOC Gastrointestinal disorders, subjects n (%)” value [2] was 1 (12.5%), the “TEAE SOC General disorders and administration site conditions, number of occurrences” value [2] was 2 and the “TEAE SOC General disorders and administration site conditions, subjects n (%)” value [2] was 1 (12.5%). The “TEAE SOC Infections and infestations, subjects n (%)” value [2] was 0, the “TEAE SOC Nervous system disorders, number of occurrences” value [2] was 1 and the “TEAE SOC Nervous system disorders, subjects n (%)” value [2] was 1 (12.5%). For the same compound, the “TEAE SOC Renal and urinary disorders, subjects n (%)” value [2] was 0, the “TEAEs Not Related to study drug (strongest relationship), subjects n (%)” value [2] was 0 and the “TEAEs Related to study drug (strongest relationship), subjects n (%)” value [2] was 2 (25.0%). The “TEAEs Related to study drug, number of occurrences” value [2] was 4, the “TEAEs by maximum severity: Mild, number of occurrences” value [2] was 3 and the “TEAEs by maximum severity: Mild, subjects n (%)” value [2] was 1 (12.5%). For the same compound, the “TEAEs by maximum severity: Moderate, number of occurrences” value [2] was 1, the “TEAEs by maximum severity: Moderate, subjects n (%)” value [2] was 1 (12.5%) and the “TEAEs by maximum severity: Severe, subjects n (%)” value [2] was 0. For the same compound, the “Total number of SAEs reported” value [2] was 0, the “Total number of TEAEs reported” value [2] was 4 and the “Any TEAE, number of occurrences” value [3] was 6. The “Related TEAE Abdominal discomfort, number of occurrences” value [3] was 1, the “Related TEAE Abdominal discomfort, subjects n (%)” value [3] was 1 (7.1%) and the “Related TEAE Diarrhea, number” value [3] was 2. For the same compound, the “Related TEAE Diarrhea, subjects n (%)” value [3] was 2 (14.3%), the “Related TEAE Epigastric discomfort, number of occurrences” value [3] was 1 and the “Related TEAE Epigastric discomfort, subjects n (%)” value [3] was 1 (7.1%). For the same compound, the “Related TEAE Fatigue, subjects n (%)” value [3] was 0, the “Related TEAE Haematuria, subjects n (%)” value [3] was 0 and the “Related TEAE Headache, subjects n (%)” value [3] was 0. The “Related TEAE Neutropenia, subjects n (%)” value [3] was 0, the “Related TEAE Pain, subjects n (%)” value [3] was 0 and the “Related TEAE Paraesthesia, number of occurrences” value [3] was 1. For the same compound, the “Related TEAE Paraesthesia, subjects n (%)” value [3] was 1 (7.1%), the “SAEs Not related to study drug … (%)” value [3] was 0 and the “SAEs Related to study drug” value [3] was 0. The “Subjects reporting any SAEs, subjects n (%)” value [3] was 0, the “Subjects reporting any TEAE, subjects n (%)” value [3] was 4 (28.6%) and the “TEAE Abdominal discomfort, number of occurrences” value [3] was 1. For the same compound, the “TEAE Abdominal discomfort, subjects n (%)” value [3] was 1 (7.1%), the “TEAE COVID-19, subjects n (%)” value [3] was 0 and the “TEAE Death, subjects n (%)” value [3] was 0. The “TEAE Diarrhea, number of occurrences” value [3] was 3, the “TEAE Diarrhea, subjects n (%)” value [3] was 3 (21.4%) and the “TEAE Epigastric discomfort, number of occurrences” value [3] was 1. For the same compound, the “TEAE Epigastric discomfort, subjects n (%)” value [3] was 1 (7.1%), the “TEAE Fatigue, subjects n (%)” value [3] was 0 and the “TEAE Haematuria, subjects n (%)” value [3] was 0. The “TEAE Headache, subjects n (%)” value [3] was 0, the “TEAE Neutropenia, subjects n (%)” value [3] was 0 and the “TEAE Pain, subjects n (%)” value [3] was 0. For the same compound, the “TEAE Paraesthesia, number of occurrences” value [3] was 1, the “TEAE Paraesthesia, subjects n (%)” value [3] was 1 (7.1%) and the “TEAE SOC Blood and lymphatic system disorders, subjects n (%)” value [3] was 0.
